In PubChem BioAssay (NCI) one finds GI50 and TGI data, which are given here for 7 compounds.

The structures appear in SMILES notation.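 Each compound was tested at five concentrations against cells in 96-well plates for 48 hours. The concentration for 50% growth inhibition is given as GI50. TGI marks complete inhibition of growth.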

Holding throughout (assay): growth of human tumour cells (NCI), 48 h
The subject of test [1] is EKVX NSCLC.
Test [2] deals with IGROV1 ovarian.
Test [3] concerns SK-OV-3 ovarian.
Test [4] concerns MDA-MB-435.
In test [5] the test system is TK-10 renal.
For test [6], the system named is SF-539 CNS.
Test [7] relates to A549 NSCLC.
The test system of test [8] is HL-60(TB) leukemia.
In test [9] the test system is SK-MEL-2 melanoma.
For test [10], the system named is MDA-MB-231 breast.

In the case of `O=C(O)c1ccc(NCc2nc3ccccc3[nH]2)cc1`, the GI50 in [1], in test [2], in [3], in test [4], in test [5] and in [6] was > 100 µM each time. Further, the GI50 in test [7], in test [8], in test [9] and in test [10] was > 100 µM in each case. Besides, the TGI in test [1], in [2], in [3], in [4], in test [5] and in test [6] was > 100 µM each time. Besides, the TGI in test [7], in test [8], in [9] and in [10] was > 100 µM in each case.

Take `O=C(/C=C/c1ccco1)Nc1ncc(Cc2cccc(C(F)(F)F)c2)s1`: the GI50 in test [1] is 0.117 µM; in [2], 0.124 µM; in test [3], 0.0626 µM; in [4] it was 0.0207 µM; in test [5] it was 0.779 µM; in test [6] it was 0.0762 µM. The GI50 in test [7] is 0.113 µM; in [8] it was 0.0604 µM; in test [9], 0.0966 µM; in test [10] it was 0.153 µM. Besides, the TGI in [1] is > 55.8 µM; in [2], > 32.2 µM; in test [3], 7.45 µM; in [4], 0.0533 µM; in test [5], 13.8 µM; in test [6], 0.313 µM. Moreover, the TGI in test [7] is > 36.4 µM; in [8], 0.19 µM; in test [9], 5.28 µM; in test [10], 4.8 µM.

In the case of `CCOC(=O)Nc1ccc2nc(N3CCCCCC3)sc2c1`, the GI50 in [1] was 5.14 µM; in test [2], 4.36 µM; in test [3], 2.36 µM; in [4], 0.204 µM; in test [5], 5.07 µM; in [6], 1.59 µM. Besides, the GI50 in test [7] is 3.32 µM; in test [8] it was 0.436 µM; in [9], 2.67 µM; in test [10] it was 3.19 µM. For the same compound, the TGI in test [1] is > 100 µM; in test [2], > 100 µM; in test [3] it was > 72.8 µM; in test [4], 0.567 µM; in test [5], > 91 µM; in test [6], > 27.4 µM. For the same compound, the TGI in [7] was > 100 µM; in test [8], 21 µM; in test [9] it was > 72.5 µM; in [10], > 56.8 µM.

Take `C[C@]12CCCN1CC1=NNC(=O)c3cc(F)cc4[nH]c2c1c34`: the GI50 in test [1] is 13.6 µM; in [2], 21.5 µM; in test [3], 25.9 µM; in [4], 23.7 µM; in [5], 22.6 µM; in [6], 17.6 µM. Moreover, the GI50 is 22.4 µM in test [7], 25 µM in test [8], 22.3 µM in test [9] and 18 µM in [10]. The TGI was 49.7 µM in test [1]; > 100 µM in test [2]; > 100 µM in test [3]; 80.6 µM in [4]; > 100 µM in [5]; 57.7 µM in [6]. Also, the TGI in test [7] was > 100 µM; in test [8], 66.9 µM; in [9], 52.4 µM; in test [10], 66.5 µM.

On to `CS(=O)(=O)c1ccc2c(c1)C(=O)c1c-2n(CCCBr)c(=O)c2cc([N+](=O)[O-])ccc12`, for which the GI50 in test [1] is > 100 µM; in [2] it was 13.6 µM; in [3] it was 7.58 µM; in [4], 82.6 µM; in test [5] it was 40.2 µM; in [6], 24 µM. The GI50 in test [7] was 7.34 µM; in test [8] it was 3.37 µM; in test [9], 19.6 µM; in [10], 51.1 µM. Also, the TGI in [1], in [2], in test [3], in test [4], in test [5] and in test [6] was > 100 µM throughout. For the same compound, the TGI in [7] was > 100 µM; in [8], > 100 µM; in test [9], 43.8 µM; in test [10], > 100 µM.

As to `O=C(COc1cccc(/C=C2\COc3ccccc3C2=O)c1)c1ccccc1`, the GI50 in test [1] is 7.98 µM; in [2], 2.18 µM; in test [3] it was 15.2 µM; in test [4] it was 3.14 µM; in test [5] it was 3.6 µM; in [6], 15.6 µM. For the same compound, the GI50 in test [7] was 15.7 µM; in [8] it was 5.85 µM; in [9], 2.75 µM; in test [10] it was 10.6 µM. Also, the TGI was found to be 20.6 µM in [1]; 3.96 µM in test [2]; 29 µM in [3]; 10.7 µM in [4]; 11.2 µM in test [5]; 29 µM in [6]. Also, the TGI turned out to be 49.7 µM in test [7], 29.2 µM in test [8], 9.68 µM in test [9] and 22.9 µM in test [10].

Consider `Nc1nc(=S)c2ncn(C3OC(CO)C(O)C3O)c2[nH]1` (stereo not given), for which the GI50 in test [1] is 2.02 µM; in test [2], 3.77 µM; in test [3], 0.379 µM; in test [4], 1.02 µM; in [5] it was 0.633 µM; in test [6], 0.745 µM. The GI50 in test [7] is 3.69 µM; in [8], 1.67 µM; in test [9], 10.5 µM; in [10], 1.39 µM. Besides, the TGI in test [1] is > 100 µM; in test [2] it was > 35.5 µM; in test [3] it was 7.76 µM; in test [4] it was > 69.6 µM; in test [5], > 64.8 µM; in [6], > 79.2 µM. The TGI in [7] was > 33.6 µM; in test [8], 11 µM; in test [9] it was > 100 µM; in test [10], > 100 µM.
